Test results taken from US10357036B2, “Compounds for controlling arthropods” (priority 2015, dated 2019).
Read-outs that look alike come from different tables or passages of the source.

Legend:
[1] = system: Ctenocephalides felis; experiment: Ctenocephalides felis in vitro contact test with adult cat fleas; type: in vivo; settings: application rate 5 μg/cm^2 (=500 g/ha); after 48 h; dead or moribund fleas
In short: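 After 48 h at room temperature and ambient humidity, adult cat fleas (5–10 per tube) were scored, with motionless or uncoordinated fleas counted dead or moribund. Tubes had been coated with acetone solutions of compound, the 900 ppm solution giving 5 μg/cm². Efficacy: 100% means all fleas dead or moribund, 0% none harmed.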

[2] = system: Rhipicephalus sanguineus; experiment: Rhipicephalus sanguineus in vitro contact test with adult brown dog ticks; type: in vivo; settings: after 48 h
In short: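 Efficacy, as % of ticks dead or moribund, was judged 48 h after placing 5-10 adult brown dog ticks in acetone-coated tubes (5 μg/cm^2 from 900 ppm) kept dark at room temperature. Ticks unable to climb away from a 45-50° C hotplate within 5 min counted as affected.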

[3] = system: Boophilus microplus; experiment: Boophilus microplus injection test; type: in vivo; settings: 20 μg/animal; assessed after 7 days
Experimental: (§1) • Solvent: dimethyl sulfoxide
1 μl of the active ingredient solution is injected into the abdomen of 5 engorged adult female cattle ticks (Boophilus microplus). The animals are transferred into dishes and kept in a climate-controlled room.

[4] = system: Ctenocephalides felis; experiment: Ctenocephalides felis oral test; type: in vivo; settings: 100 ppm in citrated cattle blood; after 2 days
[5] = system: Musca domestica; experiment: Musca domestica test; type: in vivo; settings: 100 ppm; adult houseflies; after 2 days
Experimental: as §1
To produce a suitable active ingredient formulation, 10 mg of active ingredient are mixed with 0.5 ml of dimethyl sulfoxide, and the concentrate is diluted with water to the desired concentration.
Vessels containing a sponge treated with sugar solution and the active ingredient formulation of the desired concentration are populated with 10 adult houseflies (Musca domestica).

[6] = system: Spodoptera frugiperda; experiment: Spodoptera frugiperda spray test; type: in vivo; settings: 100 g/ha, after 7 days
[7] = system: Tetranychus urticae; experiment: Tetranychus urticae spray test, OP-resistant (bean leaf discs); type: in vivo; settings: 100 g/ha; after 6 days
Experimental: (§2) After 6 days, the efficacy in % is determined.

[8] = system: Anopheles gambiae strain RSPH (homozygot kdr); experiment: whole plant or invertebrate; type: in vivo; settings: read-out: efficacy (mortality)
Experimental: (§3) • Solvent: acetone+2000 ppm rapeseed oil methyl ester (RME)
(§4) To produce a suitable active compound formulation, the active compound is dissolved in the solvent (2 mg/ml). The active compound formulation is pipetted onto a glazed tile and, after it has dried off, adult mosquitoes of the species Anopheles gambiae strain RSPH (homozygot kdr) are placed onto the treated tile. The exposure time is 30 minutes.

[9] = system: Aedes aegypti strain MONHEIM; experiment: whole plant or invertebrate; type: in vivo; settings: read-out: efficacy (mortality)
Experimental: as §3
as §4, with “Aedes aegypti” for “Anopheles gambiae”, “MONHEIM” for “RSPH (homozygot kdr)”

[10] = system: Phaedon cochleariae; experiment: Phaedon cochleariae spray test; settings: for efficacy: 100 g/ha, after 7 days
[11] = system: cattle ticks (Boophilus microplus) Parkhurst strain, SP-resistant; experiment: Boophilus microplus dip test; type: in vivo; settings: 100 ppm; assessed after 7 days
Experimental: • Test animals: cattle ticks (Boophilus microplus) Parkhurst strain, SP-resistant • Solvent: dimethyl sulfoxide
10 mg of active ingredient are dissolved in 0.5 ml of dimethyl sulfoxide. To produce a suitable formulation, the active ingredient solution is diluted with water to the concentration desired in each case.
This active ingredient formulation is pipetted into tubes. 8-10 engorged adult female cattle ticks (Boophilus microplus) are transferred into a further tube with holes. The tube is immersed into the active ingredient formulation, and all the ticks are completely wetted. After the liquid has run out, the ticks are transferred on filter discs into plastic dishes and stored in a climate-controlled room.
Efficacy is assessed after 7 days by laying of fertile eggs. Eggs which are not visibly fertile are stored in a climate-controlled cabinet until the larvae hatch after about 42 days. An efficacy of 100% means that none of the ticks has laid any fertile eggs; 0% means that all the eggs are fertile.

[12] = system: Tetranychus urticae; experiment: Tetranychus urticae spray test, OP-resistant (bean plants); type: in vivo; settings: 4 ppm; after 7 days
Experimental: To produce further test concentrations, the latter is diluted with emulsifier-containing water. When addition of ammonium salts and/or penetrants is required, these are each added at a concentration of 1000 ppm to the preparation solution.
Bean plants (Phaseolus vulgaris), which are heavily infested by all stages of the greenhouse red spider mite (Tetranychus urticae), are treated by being sprayed with the active compound preparation at the desired concentration.

[13] = system: Meloidogyne incognita; experiment: Meloidogyne incognita test; type: in vivo; settings: 20 ppm; after 14 days
Experimental: • Solvent: 125.0 parts by weight of acetone
To produce a suitable active compound preparation, 1 part by weight of active compound is mixed with the stated amount of solvent and the concentrate is diluted to the desired concentration with water.
Vessels are filled with sand, active compound solution, an egg/larvae suspension of the southern root-knot nematode (Meloidogyne incognita) and lettuce seeds. The lettuce seeds germinate and the plants develop. The galls develop on the roots.
After 14 days, the nematicidal efficacy in % is determined by the formation of galls. 100% means that no galls were found; 0% means that the number of galls on the treated plants corresponds to the untreated control.

[14] = system: Myzus persicae; experiment: Myzus persicae spray test (Chinese cabbage leaf discs); type: in vivo; settings: 100 g/ha; after 6 days
Experimental: as §2

[15] = system: Amaranthus retroflexus (AMARE); experiment: Herbicidal activity, pre-emergence; type: in vivo; settings: 1280 g/ha, 3 weeks
Text: Seeds of monocotyledonous and dicotyledonous weed plants and crop plants were placed in wood-fibre pots in sandy loam and covered with soil. The compounds according to the invention, formulated as emulsion concentrates (EC), were then applied to the surface of the covering soil as an emulsion at a water application rate equating to 600 to 800 Uha with addition of 0.2% wetting agent.
After the treatment, the pots were placed in a greenhouse and kept under good growth conditions for the test plants. The damage to the test plants was scored visually after a test period of 3 weeks by comparison with untreated controls (herbicidal activity in percent (%): 100% activity=the plants have died, 0% activity=like control plants). Here, for example, compounds No. Ia-17, Ia-37, Ia-28 and Ia-56 at an application rate of 1280 g/ha each show 100% efficacy against Amaranthus retroflexus (AMARE) and with the exception of Ia-56, even against Viola tricolor (VIOTR). Furthermore, compounds no. Ia-17, Ia-37 and Ia-28 at the same application rate show an 80% or better efficacy against Matricaria inodorae (MATIN) and Ia-17 and Ia-37 even against Stellaria media (STEME).

[16] = application rate 5 μg/cm^2 (=500 g/ha), dead or moribund ticks

| SMILES | efficacy [1] | efficacy [2, 16] | efficacy (laying of fertile eggs) [3] | efficacy (rate of extermination) [4] | efficacy (rate of extermination) [5] | efficacy [7] | efficacy (laying of fertile eggs) [11] | efficacy [6] | efficacy [12] | efficacy [10] | nematicidal efficacy (formation of galls) [13] | further results |
| --- | --- | --- | --- | --- | --- | --- | --- | --- | --- | --- | --- | --- |
| CC(=O)N(Cc1cc(-c2cnn(-c3c(Cl)cc(C(F)(C(F)(F)F)C(F)(F)F)cc3Cl)c2)ccc1Cl)C(C)=O [Ia-108, N-Acetyl-N-(2-chloro-5-{1-[2,6-dichloro-4-(1,1,1,2,3,3,3-heptafluoropropan-2-yl)phenyl]-1H-pyrazol-4-yl}benzyl)acetamide] | 100% | 80% | 100% | 100% | 100% | 90% | – | – | – | – | – | pest or weed control at 100 g/ha ([6]; Spodoptera frugiperda, 168 h, read-out: efficacy): 100%; mortality at 100 mg/m2 [8]: 90 to 100%; mortality at 20 mg/m2 [9]: 90 to 100%; mortality at 100 mg/m2 [9]: 90 to 100%; pest or weed control at 100 g/ha ([10]; Phaedon cochleariae, 168 h, read-out: efficacy): 100%; chromatographic logP (reversed-phase C18 HPLC column, logP, HPLC, C18, acetonitrile/water with formic acid (note a)): 5.14; chromatographic logP (reversed-phase C18 HPLC column, logP^a, HPLC-MS method a)): 5.14 |
| O=C(NCc1cc(-c2cn(-c3c(Cl)cc(C(F)(C(F)(F)F)C(F)(F)F)cc3Cl)cn2)ccc1F)C1CC1 [I-T2-04] | 100% | – | 100% | 100% | – | – | 100% | 83% | 100% | 100% | – | – |
| CC(=O)NCc1cc(-c2cnn(-c3c(Cl)cc(C(F)(C(F)(F)F)C(F)(F)F)cc3Cl)c2)ccc1F [Ia-15] | 100% | 100% | 100% | 100% | 100% | 100% | 90% | 100% | – | 100% | 90% | efficacy [14]: 90% |
| CCC(=O)NCc1cc(-c2cnn(-c3c(Cl)cc(C(F)(C(F)(F)F)C(F)(F)F)cc3OC(F)F)c2)ccc1Cl [Ia-51] | 100% | 100% | 100% | 100% | 100% | – | 100% | 100% | 99% | 100% | – | – |
| CC(=O)NCc1cc(-c2cnn(-c3c(Cl)cc(C(F)(C(F)(F)F)C(F)(F)F)cc3OC(F)F)c2)ccc1Cl [Ia-53] | 90% | 100% | 100% | 100% | 100% | – | 100% | 100% | 99% | 100% | – | – |
| CC(=O)NCc1cc(-c2cnn(-c3c(Cl)cc(C(F)(C(F)(F)F)C(F)(F)F)cc3C#N)c2)ccc1F [Ia-105] | – | – | – | – | – | 100% | – | 100% | – | 100% | 90% | efficacy [14]: 90% |
| O=C(NCc1cc(-c2cnn(-c3c(Cl)cc(C(F)(C(F)(F)F)C(F)(F)F)cc3OC(F)(F)F)c2)ccc1Cl)C1CC1 [Ia-56] | 100% | – | 100% | 100% | 100% | – | – | 100% | – | 100% | – | efficacy ([2]; application rate 1 μg/cm^2 (=100 g/ha)): 100%; herbicidal efficacy [15]: 100% |
| CC(=O)NCc1cc(-c2cnn(-c3c(Cl)cc(C(F)(C(F)(F)F)C(F)(F)F)cc3C(F)F)c2)ccc1F [Ia-34] | – | – | – | – | – | 100% | – | 100% | – | 100% | 100% | efficacy [14]: 90% |
| CCC(=O)NCc1cccc(-c2cnn(-c3c(Cl)cc(C(F)(C(F)(F)F)C(F)(F)F)cc3Cl)c2)c1 [Ia-08] | 100% | 80% | 100% | 100% | 80% | 90% | – | 100% | – | 100% | 100% | – |
| CC(=O)NCc1cc(-c2cnn(-c3c(Cl)cc(C(F)(C(F)(F)F)C(F)(F)F)cc3C(F)(F)F)c2)ccc1Cl [Ia-55] | 70% | 100% | 100% | 100% | 100% | – | – | 100% | 99% | 100% | – | – |
| CC(=O)NCc1cc(-c2cnn(-c3c(Cl)cc(C(F)(C(F)(F)F)C(F)(F)F)cc3OC(F)(F)F)c2)ccc1Cl [Ia-57] | – | 80% | 100% | 100% | 100% | – | – | 100% | 99% | 100% | – | – |
